This is an account of results in article PMC6804243, “Small-Molecule Inhibition of UBE2T/FANCL-Mediated Ubiquitylation in the Fanconi Anemia Pathway” (ACS Chemical Biology, 2019).

This test relates to pS345 CHK1, γH2AX, pS824 KAP1, PARP1. In words: Immunoblot of DNA damage biomarkers (pS345 CHK1, γH2AX, pS824 KAP1, PARP1 cleavage) in U2OS cells. It is filed as cell-based. Particulars: 8 h, CU1 200 μM or CU2 500 μM; for levels of pS824 KAP1 / levels of pS345 CHK1: HU 2.5 mM; for levels of pS345 CHK1: relative to DMSO control; for levels of γH2AX (immunoblot): in combination with HU 2.5 mM, relative to HU plus DMSO. The protocol: As DNA damage induced by HU is cell-cycle-dependent, it was necessary to establish whether CU1 and CU2 might simply prevent cells from entering the S-phase, which would also manifest itself as a reduction in mUb-FANCD2. This was determined by analysis of several biomarkers linked to DNA damage in cycling cells. Activated CHK1 (pS345 CHK1) phosphorylates CDC25A, inducing the transient arrest of cells in the S-phase, or in G2 before the onset of mitosis.[18] […] These observations were also confirmed by cell cycle analysis.
Following the generation of DNA DSBs, ATM, ATR, and/or DNA-PKcs mediated phosphorylation of histone H2AX generates the phosphorylated species, γH2AX.[19] […] Following HU treatment, DSBs are formed if stalled replication forks are not stabilized and subsequently collapse. Therefore, we concluded that CU1 and CU2 appeared to act by impairing the ability of cells to stabilize and repair stalled replication forks. This is consistent with CU1 and CU2 inhibiting the formation of mUb-FANCD2, which would otherwise play a role in stabilizing stalled replication forks, thus preventing their collapse and the formation of DSBs.
In response to DSB formation, the transcriptional repressor and RING finger protein, KAP1, is released from chromatin, following its ATM-mediated phosphorylation on Ser824.[20] […] An increase in the number of DSBs could also have been caused by apoptosis. In cells undergoing apoptosis, PARP1 is cleaved from a full-length 116 kDa protein into 89 and 24 kDa polypeptides by caspase-3.[21]
Reaction mixtures were incubated for the indicated time at 37 °C and stopped by the addition of 2X reducing SDS -PAGE sample buffer, separated on NuPAGE Novex 4 –12% Bis/Tris gradient gels (Invitrogen) and visualized by Western blotting using the indicated antibodies (Table S3).
Cell culture. U2OS cells were cultured at 37 °C in a humidified atmosphere and 5% (v/v) CO2 in Dulbecco's Modified Eagle Medium (DMEM; Sigma-Aldrich) supplemented with 10% (v/v) fetal bovine serum (FBS), 100 units/ml of penicillin, […] of streptomycin and 292 μg/mL L-glutamine.
Cell extract preparation and immunoblotting. U2OS cells were lysed in buffer containing 50 mM Tris-HCl pH 7.5, 2% SDS, 10 mM NEM, cocktail protease inhibitor (Roche) and phosphatase inhibitor cocktail followed by sonication 100 µg of extracts were boiled for 5 mins at 95 °C in 5X loading buffer and loaded onto NuPAGE Novex 4–12% Bis/Tris gradient gels
(Invitrogen), or NuPAGE Novex 3-8% Tris/Acetate gradient gels (Invitrogen) for detection of mUb-FANCD2. After separation the gels were transferred to PVDF and the membranes were blocked with Tris-buffered saline containing 0.1% (v/v) Tween-20 (TBST) and 5% (v/v) bovine serum albumin (BSA) and incubated with the indicated primary and secondary antibodies. mUb-FANCD2 intensity was quantified using Image Studio (LI-COR).
IncuCyte cell proliferation assays. 2000 U2OS cells were seeded per well in 96-well plates and treated with compounds 24 hours afterwards. After 1 hour of compound treatment, 15 µM carboplatin (Sigma-Aldrich) was added and the cells were cultured in an incubator with an IncuCyte microscopy -platform (Essen BioScience). Phase -contrast images were acquired every 6 hours for 8 days until DMSO-carboplatin treated cells reached >80% confluence. Cell proliferation was monitored as the occupied area (% confluence) of cell images over time and calculated as percentage confluence over time. Cell confluency percentages were calculated using the integrated Cell Player software and results were analysed with Prism 6 (GraphPad Software).

Consider `NCCN1C(=O)CC[C@H]2CN(Cc3cccc(-c4ccco4)c3)CC[C@H]21` [CU1], for which the “levels of pS824 KAP1” value is “increased levels of pS824 KAP1”, the “levels of pS345 CHK1” value is on record as “Comparable levels of pS345 CHK1” and the “levels of γH2AX (immunoblot)” value is given as “somewhat increased the levels of γH2AX”.

In the case of `CCN1CCN(c2cc(C)nc3nc(CN4CCCCC4C)nn23)CC1` (stereo not drawn) [CU2], the “levels of pS824 KAP1” value is “increased levels of pS824 KAP1”, the “levels of pS345 CHK1” value was “Comparable levels of pS345 CHK1” and the “levels of γH2AX (immunoblot)” value was “somewhat increased the levels of γH2AX”.
